Experimental data as given in US20260263624A1, “COMBINATION OF ANTIBODY-DRUG CONJUGATE AND CANCER THERAPY, AND USE THEREOF” (GENEQUANTUM HEALTHCARE (SUZHOU) CO., LTD., priority 2023, published 2026).

Tests used:
[1] = tested on: HCC1954 cells (breast cancer HER2-high CDX model); assay: In vivo efficacy of GQ01 with chemotherapies in human breast cancer CDX model, HCC1954 (Example 6); design: species or system BALB/c nude mice; conditions: for Tumor volume (mm^3), Mean ± SEM: end day (day 32)
Protocol: I. HCC1954 cells in exponential growth stage were collected and counted for tumor inoculation. 0.2 mL of matrix gel buffer (PBS: Matrigel=1:1) was used to subcutaneously inject 1×10^6 cells into the right flank of SPF female BALB/c nude mice aged 6-8 weeks.
II. 9 days after inoculation, the tumor diameter was measured with a caliper and the tumor volume was calculated according to the formula V=0.5 a×b2 (wherein a is the long diameter of the tumor and b is the short diameter of the tumor). […] Each group included 6 mice. The day of first administration was defined as day 0. […] The tumor volume of mice in each group was measured twice a week.

[2] = tested on: BT-474 cells (breast cancer HER2-high CDX model); assay: In vivo efficacy of GQ01 with chemotherapies in human breast cancer CDX model, BT-474 (Example 5); design: species or system BALB/c nude mice; conditions: GQ01 5 mg/kg single dose; for TGI (%): day 25; for Tumor volume (mm^3), Mean ± SEM: end day (day 25)
Protocol: I. Breast cancer tumor cells were passaged in vivo from BT-474 cells (ATCC, Lot #HTB-20). The cells in exponential growth stage were collected and counted for tumor inoculation. 0.2 mL of matrix gel buffer (PBS: Matrigel=1:1) was used to subcutaneously inject 2×10^6 cells into the right flank of SPF female BALB/c nude mice aged 6-8 weeks. Four days before cell inoculation, BALB/c nude mice had been subcutaneously inoculated with estrogen tablet.
II. 10 days after inoculation, the tumor diameter was measured with a caliper and the tumor volume was calculated according to the formula V=0.5 a×b2 (wherein a is the long diameter of the tumor and b is the short diameter of the tumor). […] Each group included 6 mice. The day of first administration was defined as day 0. […] The tumor volume of mice in each group was measured twice a week.

[3] = capecitabine 300 mg/kg QD 2 weeks, combination 5 + 300 mg/kg
[4] = capecitabine 300 mg/kg QD 2 weeks, combination 5 + 300 mg/kg, listed as capecitabine
[5] = paclitaxel 10 mg/kg BIW 4 weeks, combination 5 + 10 mg/kg
[6] = paclitaxel 10 mg/kg BIW 4 weeks, combination 5 + 10 mg/kg, listed as paclitaxel

`CCCCCOC(=O)Nc1nc(=O)n([C@@H]2O[C@H](C)[C@@H](O)[C@H]2O)cc1F` [Capecitabine, capecitabine] was tested, and the “Tumor volume (mm^3), Mean ± SEM” value ([1]; table prints GQ01 5 mg/kg and 5 + 300 mg/kg, text GQ01 2 mg/kg single dose, capecitabine 300 mg/kg QD 2 weeks) was 1,183 ± 222 mm^3, the “Tumor volume (mm^3), Mean ± SEM” value ([1]; table prints GQ01 5 mg/kg and 5 + 300 mg/kg, text GQ01 2 mg/kg single dose, capecitabine 300 mg/kg QD 2 weeks, listed as capecitabine) was 1183 mm^3 and the “TGI (%)” value ([1]; text: day 32, footnote: day 25, table prints GQ01 5 mg/kg and 5 + 300 mg/kg, text GQ01 2 mg/kg single dose, capecitabine 300 mg/kg QD 2 weeks) was 29.05%. The “TGI (%)” value ([1]; text: day 32, footnote: day 25, table prints GQ01 5 mg/kg and 5 + 300 mg/kg, text GQ01 2 mg/kg single dose, capecitabine 300 mg/kg QD 2 weeks, listed as capecitabine) was 29.05%, the “TGI (%)” value [2, 3] was 21.01% and the “TGI (%)” value [2, 4] was 21.01%. For the same compound, the “Tumor volume (mm^3), Mean ± SEM” value [2, 3] was 858 ± 280 mm^3 and the “Tumor volume (mm^3), Mean ± SEM” value [2, 4] was 858 mm^3.

In the case of `CC(=O)O[C@H]1C(=O)[C@@]2(C)[C@H]([C@H](OC(=O)c3ccccc3)[C@]3(O)C[C@H](OC(=O)[C@H](O)[C@@H](NC(=O)c4ccccc4)c4ccccc4)C(C)=C1C3(C)C)[C@]1(OC(C)=O)CO[C@@H]1C[C@@H]2O` [Paclitaxel, paclitaxel], the “TGI (%)” value ([1]; day 32, GQ01 2 mg/kg single dose, paclitaxel 10 mg/kg BIW 4 doses, combination 2 + 10 mg/kg, trastuzumab 5 + pertuzumab 5 (single dose) + paclitaxel 10 mg/kg) is reported as 26.60%, the “TGI (%)” value ([1]; day 32, GQ01 2 mg/kg single dose, paclitaxel 10 mg/kg BIW 4 doses, combination 2 + 10 mg/kg, trastuzumab 5 + pertuzumab 5 (single dose) + paclitaxel 10 mg/kg, listed as paclitaxel) is reported as 26.60% and the “Tumor volume (mm^3), Mean ± SEM” value ([1]; GQ01 2 mg/kg single dose, paclitaxel 10 mg/kg BIW 4 doses, combination 2 + 10 mg/kg, trastuzumab 5 + pertuzumab 5 (single dose) + paclitaxel 10 mg/kg) is reported as 1,219 ± 124 mm^3. For the same compound, the “Tumor volume (mm^3), Mean ± SEM” value ([1]; GQ01 2 mg/kg single dose, paclitaxel 10 mg/kg BIW 4 doses, combination 2 + 10 mg/kg, trastuzumab 5 + pertuzumab 5 (single dose) + paclitaxel 10 mg/kg, listed as paclitaxel) was 1219 mm^3, the “TGI (%)” value [2, 5] was 58.54% and the “TGI (%)” value [2, 6] was 58.54%. For the same compound, the “Tumor volume (mm^3), Mean ± SEM” value [2, 5] was 520 ± 87 mm^3 and the “Tumor volume (mm^3), Mean ± SEM” value [2, 6] was 520 mm^3.
